# Values joined by “and” are separate entries in the source; they are usually repeats but may differ in a detail not shown here. Equal values may be shown once. Read-outs that look alike come from different tables or passages of the source.
# What was measured:
# in vivo = settings: dog, po, 15 mg/kg
# [1] = system: Streptococcus pneumoniae Park I; experiment: microbe, parasite or virus in culture; format: cell-based
# [2] = system: Staphylococcus aureus X1.1; experiment: MIC, standard agar-dilution assay, Staphylococcus aureus X1.1; format: cell-based
# [3] = system: Staphylococcus aureus S13E; experiment: MIC, standard agar-dilution assay, Staphylococcus aureus S13E; format: cell-based
# [4] = system: Haemophilus influenzae R252; experiment: MIC, standard agar-dilution assay, Haemophilus influenzae R252; format: cell-based
# [5] = system: Streptococcus Group D X66; experiment: MIC, standard agar-dilution assay, Streptococcus Group D X66; format: cell-based
# [6] = system: Pasteurella multocida 60A; experiment: MIC, broth-dilution microtiter test, Pasteurella multocida 60A; format: cell-based; settings: Pasteurella multocida 60A, avian isolate, broth-dilution microtiter
# Description: (§1) The MIC's in Table X were obtained using conventional broth-dilution microtiter tests.
# [7] = system: Streptococcus pyogenes C203; experiment: In vivo protection of mice experimentally infected with S. pyogenes C203; settings: mice, doses given 1 and 4 hours post-infection; for ED50: Streptococcus pyogenes
# Description: The C-20 modified derivatives of this invention have shown in vivo antimicrobial activity against experimentally-induced infections in laboratory animals. When two doses of test compound were administered to mice experimentally infected with S. pyogenes C203, the activity observed was measured as an ED50 value [effective dose in mg/kg to protect 50% of the test animals: see Warren Wick, et al., J. Bacteriol. 81, 233-235 (1961)].
# Mycoplasma hyorhinis = experiment: MIC, broth-dilution microtiter test, Mycoplasma hyorhinis; format: cell-based
# Description: as §1
# Streptococcus Group 9960 = experiment: MIC, standard agar-dilution assay, Streptococcus Group 9960; format: cell-based
# Mycoplasma gallisepticum [8] = experiment: MIC, broth-dilution microtiter test, Mycoplasma gallisepticum; format: cell-based
# Description: as §1
# [9] = system: Streptococcus pyogenes C203; experiment: MIC, standard agar-dilution assay, Streptococcus pyogenes C203; format: cell-based
# [10] = system: Staphylococcus aureus V41; experiment: MIC, standard agar-dilution assay, Staphylococcus aureus V41; format: cell-based
# Streptococcus bovis 80 = experiment: MIC, broth-dilution microtiter test, Streptococcus bovis 80; format: cell-based
# Description: as §1
# [11] = system: Pasteurella multocida 17E; experiment: MIC, broth-dilution microtiter test, Pasteurella multocida 17E; format: cell-based; settings: Pasteurella multocida 17E, bovine isolate, broth-dilution microtiter
# Description: as §1
# Pasteurella multocida [12] = experiment: Subcutaneous treatment of Pasteurella multocida-infected chicks; format: in vivo, one-day-old chicks; settings: 30 mg/kg × 2, 1 and 4 hours post-challenge
# Summary of the method: (§2)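 Dosing either by gavage at 1 and 5 h after infection, or subcutaneously at 30 mg/kg at 1 and 4 h after infection. Birds were day-old chicks infected s.c. with 0.1 ml of avian Pasteurella multocida culture (twenty-hour tryptose broth, diluted 10^-4).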
# Pasteurella multocida [13] = experiment: Oral (gavage) treatment of Pasteurella multocida-infected chicks; format: in vivo, one-day-old chicks
# Summary of the method: as §2
# Mycoplasma hyopneumoniae = experiment: MIC, broth-dilution microtiter test, Mycoplasma hyopneumoniae; format: cell-based; settings: Mycoplasma hyopneumoniae, broth-dilution microtiter
# Description: as §1
# [14] = system: Pasteurella hemolytica 22C; experiment: MIC, broth-dilution microtiter test, Pasteurella hemolytica 22C; format: cell-based; settings: Pasteurella hemolytica 22C, broth-dilution microtiter
# Description: as §1
# Mycoplasma gallisepticum [15] = experiment: Antimycoplasmal activity in chicks infected with Mycoplasma gallisepticum; format: in vivo, two- to three-day-old chicks; settings: gavage five times, equivalent to 0.5 g/gal; for Number with Antibodies/Number Tested: antibodies to M. gallisepticum; for Number with Antibodies/Number Tested / Number with Air-Sac Lesions/Number Treated: 21 days post-infection
# Description: In these tests infections were induced in chicks by injecting 0.2 ml of a broth culture of M. gallisepticum into the abdominal air sac of two- to three-day-old chicks. The compounds were administered by gavage five times at a dose equivalent to 0.5 g/gal (on the day of challenge once prior to and once following the challenge, two times on the next day and once on the third day). Twenty-one days post-infection, the chicks were weighed, a blood sample was taken, and the chicks were sacrificed. The presence or absence of air-sac lesions was recorded.
# [16] = system: Staphylococcus epidermidis EPI1; experiment: MIC, standard agar-dilution assay, Staphylococcus epidermidis EPI1; format: cell-based
# Staphylococcus aureus = experiment: MIC, broth-dilution microtiter test, Staphylococcus aureus; format: cell-based
# Description: as §1
# [17] = system: Staphylococcus aureus X400; experiment: MIC, standard agar-dilution assay, Staphylococcus aureus X400; format: cell-based
# [18] = system: Staphylococcus epidermidis EPI2; experiment: MIC, standard agar-dilution assay, Staphylococcus epidermidis EPI2; format: cell-based; settings: Staphylococcus epidermidis EPI2, agar dilution
# Mycoplasma synoviae = experiment: MIC, broth-dilution microtiter test, Mycoplasma synoviae; format: cell-based
# Description: as §1
# [19] = system: Haemophilus influenzae Holt; experiment: MIC, standard agar-dilution assay, Haemophilus influenzae Holt; format: cell-based
# [20] = Plasma level after oral administration to dogs; settings: female mongrel dogs; single 15 mg/kg oral dose
# [21] = C203, sc, subcutaneous, read-out: ED50, Subcutaneous
# [22] = C203, oral, read-out: ED50, Oral
# [23] = Mesomycoplasma hyopneumoniae, read-out: MIC
compound,measurement,setting,value
CC[C@H]1OC(=O)[C@H](C)[C@@H](O[C@H]2C[C@@](C)(OC)[C@@H](O)[C@H](C)O2)[C@H](C)[C@@H](O[C@@H]2O[C@H](C)C[C@H](N(C)C)[C@H]2O)[C@](C)(O)C[C@@H](C)C(=O)[C@H](C)[C@@H](O)[C@]1(C)O [erythromycin],Cmax,in vivo,1600 ng/mL
CCC1OC(=O)CC(O)C(C)C(OC2OC(C)C(O)C(N(C)C)C2O)C(CC2Nc3ccccc3S2)CC(C)C(=O)C=CC(C)=CC1COC1OC(C)C(O)C(OC)C1OC (stereo not shown) [Compound 75],MIC,[1]; Streptococcus pneumoniae,0.25 µg/mL
same,MIC,"[2]; Staphylococcus aureus, X1.1",0.25 µg/mL
same,MIC,"[3]; Staphylococcus aureus, S13E",0.25 µg/mL
same,MIC,"[4]; Haemophilus influenzae, R252",16 µg/mL
same,MIC,[5],2 µg/mL
same,MIC,[6]; read-out: MIC,25 µg/mL
same,ED50,[7]; [21],1.7 mg/kg
same,ED50,[7]; [22],30 mg/kg
same,MIC,Mycoplasma hyorhinis; Mycoplasma,50 µg/mL
same,MIC,Streptococcus Group 9960; GROUP9960,2 µg/mL
same,MIC,Mycoplasma gallisepticum [8]; Mycoplasmoides gallisepticum,1.56 µg/mL
same,MIC,"[9]; Streptococcus pyogenes, C203",0.5 µg/mL
same,MIC,"[10]; Staphylococcus aureus, V41",0.25 µg/mL
same,MIC,"Streptococcus bovis 80; Streptococcus equinus, 80",3.12 µg/mL
same,MIC,[11]; read-out: MIC,25 µg/mL
same,Number of Deaths/Number Treated,Pasteurella multocida [12],4/10
same,Number of Deaths/Number tested,Pasteurella multocida [13]; 1.0 g/gal equivalent,6/9
same,Number of Deaths/Number tested,Pasteurella multocida [13]; 2.0 g/gal equivalent,3/9 and 4/10
same,MIC,Mycoplasma hyopneumoniae; [23],0.19 µg/mL
same,MIC,[14]; read-out: MIC,25 µg/mL
same,Number with Antibodies/Number Tested,Mycoplasma gallisepticum [15],9/9
same,Mortality,Mycoplasma gallisepticum [15],1/10
same,Number with Air-Sac Lesions/Number Treated,Mycoplasma gallisepticum [15],3/10
same,MIC,"[16]; Staphylococcus epidermidis, EPI1",0.25 µg/mL
same,MIC,Staphylococcus aureus,0.78 µg/mL
same,MIC,"[17]; Staphylococcus aureus, X400",0.5 µg/mL
same,MIC,[18]; read-out: MIC,0.12 µg/mL
same,MIC,Mycoplasma synoviae; Mycoplasmopsis synoviae,1.56 µg/mL
same,MIC,[19]; Haemophilus influenzae,16 µg/mL
CCC1OC(=O)CC(O)C(C)C(OC2OC(C)C(O)C(N(C)C)C2O)C(CC=O)CC(C)C(=O)C=CC(C)=CC1COC1OC(C)C(O)C(OC)C1OC (stereo not shown) [desmycosin],Cmax,in vivo,500 ng/mL
"CCC1OC(=O)CC(O)C(C)C(OC2OC(C)C(O)C(N(C)C)C2O)C(CCSc2nnnn2C)CC(C)C(=O)C=CC(C)=CC1COC1OC(C)C(O)C(OC)C1OC (stereo not shown) [Compound 24, 20-DH-DO-20-[(1-N-Methyltetrazol-5-yl)thio]desmycosin]",MIC,[1]; Streptococcus pneumoniae,2 µg/mL
same,MIC,"[2]; Staphylococcus aureus, X1.1",0.5 µg/mL
same,MIC,"[3]; Staphylococcus aureus, S13E",0.5 µg/mL
same,MIC,"[5]; Streptococcus Group D X66, agar dilution, read-out: MIC",16 µg/mL
same,MIC,[6]; read-out: MIC,12.5 µg/mL
same,ED50,[7]; [21],2.4 mg/kg
same,ED50,[7]; [22],50 mg/kg
same,MIC,Mycoplasma hyorhinis; Mycoplasma,50 µg/mL
same,MIC,"Streptococcus Group 9960; GROUP9960, Streptococcus Group 9960, agar dilution, read-out: MIC",32 µg/mL
same,MIC,"Mycoplasma gallisepticum [8]; Mycoplasmoides gallisepticum, Mycoplasma gallisepticum, broth-dilution microtiter, read-out: MIC",1.56 µg/mL
same,MIC,"[9]; Streptococcus pyogenes C203, agar dilution, read-out: MIC",0.25 µg/mL
same,MIC,"[10]; Staphylococcus aureus, V41",0.5 µg/mL
same,MIC,"Streptococcus bovis 80; Streptococcus equinus, Streptococcus bovis 80, broth-dilution microtiter, read-out: MIC",12.5 µg/mL
same,MIC,[11]; read-out: MIC,12.5 µg/mL
same,Number of Deaths/Number Treated,Pasteurella multocida [12],2/10 and 0/10
same,Number of Deaths/Number tested,Pasteurella multocida [13]; 1.0 g/gal equivalent,2/9
same,Number of Deaths/Number tested,Pasteurella multocida [13]; 2.0 g/gal equivalent,1/9
same,MIC,Mycoplasma hyopneumoniae; [23],12.5 µg/mL
same,MIC,[14]; read-out: MIC,12.5 µg/mL
same,Number with Antibodies/Number Tested,Mycoplasma gallisepticum [15],10/10
same,Mortality,Mycoplasma gallisepticum [15],0/10
same,Number with Air-Sac Lesions/Number Treated,Mycoplasma gallisepticum [15],6/10
same,MIC,"[16]; Staphylococcus epidermidis EPI1, agar dilution, read-out: MIC",0.25 µg/mL
same,MIC,"Staphylococcus aureus; broth-dilution microtiter, read-out: MIC",0.78 µg/mL
same,MIC,"[17]; Staphylococcus aureus, X400",1 µg/mL
same,MIC,"Mycoplasma synoviae; Mycoplasmopsis synoviae, Mycoplasma synoviae, broth-dilution microtiter, read-out: MIC",0.78 µg/mL
"CC[C@H]1OC(=O)C[C@@H](O)[C@H](C)[C@@H](O[C@@H]2O[C@H](C)[C@H](O)[C@H](N(C)C)[C@H]2O)[C@@H](CCOc2ccccc2)C[C@@H](C)C(=O)/C=C/C(C)=C/[C@@H]1COC1O[C@H](C)[C@@H](O)[C@@H](OC)[C@H]1OC (stereo partly shown) [Compound 33, 20-DH-20-O-Phenyldesmycosin]",MIC,"[1]; Streptococcus pneumoniae Park I, agar dilution",2 µg/mL
same,MIC,"[2]; Staphylococcus aureus X1.1, agar dilution",0.25 µg/mL
same,peak plasma level,[20],2.1 µg/mL
same,MIC,"[3]; Staphylococcus aureus S13E, agar dilution",0.25 µg/mL
same,MIC,"[4]; Haemophilus influenzae R252, ampicillin-resistant strain, agar dilution",32 µg/mL
same,MIC,"[5]; Streptococcus Group D X66, agar dilution",8 µg/mL
same,MIC,[6],12.5 µg/mL
same,"ED50, Oral",[7]; oral,9 mg/kg × 2
same,"ED50, Subcutaneous",[7]; subcutaneous,1.5 mg/kg × 2
same,MIC,"Mycoplasma hyorhinis; Mycoplasma hyorhinis, broth-dilution microtiter",25 µg/mL
same,MIC,"Streptococcus Group 9960; Streptococcus Group 9960, agar dilution",16 µg/mL
same,MIC,"Mycoplasma gallisepticum [8]; Mycoplasma gallisepticum, broth-dilution microtiter",0.39 µg/mL
same,MIC,"[9]; Streptococcus pyogenes C203, agar dilution",2 µg/mL
same,MIC,"[10]; Staphylococcus aureus V41, penicillin-resistant strain, agar dilution",0.25 µg/mL
same,MIC,"Streptococcus bovis 80; Streptococcus bovis 80, broth-dilution microtiter",6.25 µg/mL
same,MIC,[11],12.5 µg/mL
same,Number of Deaths/Number Treated,Pasteurella multocida [12],10/10
same,Number of Deaths/Number tested,Pasteurella multocida [13]; 1.0 g/gal equivalent,9/9
same,Number of Deaths/Number tested,Pasteurella multocida [13]; 2.0 g/gal equivalent,3/9
same,Number of Deaths/Number tested,"Pasteurella multocida [13]; 2.0 g/gal equivalent, 13/20 infected nonmedicated chicks died in this test",7/10
same,MIC,Mycoplasma hyopneumoniae,25 µg/mL
same,MIC,[14],25 µg/mL
same,Number with Antibodies/Number Tested,Mycoplasma gallisepticum [15],10/10
same,Mortality,Mycoplasma gallisepticum [15],0/10
same,Number with Air-Sac Lesions/Number Treated,Mycoplasma gallisepticum [15],2/10
same,MIC,"[16]; Staphylococcus epidermidis EPI1, agar dilution",0.25 µg/mL
same,MIC,Staphylococcus aureus; broth-dilution microtiter,0.39 µg/mL
same,MIC,"[17]; Staphylococcus aureus X400, methicillin-resistant strain, agar dilution",0.25 µg/mL
same,MIC,[18],0.12 µg/mL
same,MIC,"Mycoplasma synoviae; Mycoplasma synoviae, broth-dilution microtiter",1.56 µg/mL
same,MIC,"[19]; Haemophilus influenzae Holt, ampicillin-sensitive strain, agar dilution",32 µg/mL

# From patent US4443436A, “C-20-Modified macrolide derivatives of the macrolide antibiotics tylosin, desmycosin, macrocin, and lactenocin” (Eli Lilly and Company, priority 1982, dated 1984)
